Literature values in article PMC4905688 (Biomaterials, 2016).

Test system: ischemic limbs

Which “Effect of local delivery on ischemia / vessels” value does the source give for VEGF here?
Its value is “modest reversal of ischemia or the development of leaky blood vessels”.
